# From US20030216330A1, “Parenteral, intravenous, and oral administration of oxazolidinones for treating diabetic foot infections” (PHARMACIA & UPJOHN, priority 2002, published 2003)
# Key:
# [1] = tested on: baseline gram-positive pathogen; test: Microbiological success rate in the diabetic foot infection trial; format: in vivo, human
# Description: (§1) The clinically evaluable population comprised 317 patients, most of whom were male and white with a mean age of 63 years old. Patients with critical limb ischemia were excluded, but those with osteomyelitis could be included. […] Treatment was for 7-28 days with the mean treatment duration shown below in Table 1. Patients could be switched to PO therapy at the investigator's discretion.
# (§2) Resistance to ampicillin/sulbactam was documented in 1 S. aureus isolate.
# [2] = tested on: Staphylococcus agalactiae; test: Clinical outcome by baseline pathogen (MITT population); format: in vivo; conditions: baseline pathogen S. agalactiae
# Description: as §1
# (§3) The most common baseline pathogens were S. aureus (158 isolates, 31 of which were methicillin-resistant S. aureus (MRSA), coagulase-negative staphylococci (65), enterococci (60) and Streptococcus agalactiae (52). To cover methicillin-resistant S. aureus in the aminopenicillin regimen, IV vancomycin (1 g every 12 h or per dosing guidelines) was added to the amino/β-LI treated patients with MRSA isolated from the study wound. To cover possible resistant gram-negative rods in either regimen, IV aztreonam (1-2 g, IV, every 8-12 h) was permitted in both treatment arms for suspected/documented gram-negative pathogens. This is shown below in Table 2.
# [3] = tested on: diabetic foot infection; test: Open-label, comparator-controlled trial in patients with diabetic foot infection: clinical cure; format: in vivo, human
# Description: as §1, §3
# Infections were defined by clinical signs and symptoms and categorized as cellulites, deep soft tissue infections, infected ulcer, septic arthritis, paronychia, abscess or osteomyelitis. […] The most common types (sometimes combined) of infections were: ulcers (78%); cellulitis (45%); deep soft tissue (15%); paronychia (6%). Most patients in both arms were treated as outpatients (66%) with only oral therapy (73%) and with a single agent (87%). Clinical characteristics of the infected sites at baseline were similar in the treatment groups; most common were tenderness (97%), induration (95%), local warmth (92%), non-purulent drainage (82%) and erythema (47%).
# Debridement and other surgical procedures (short of complete resection/amputation) were allowed and wounds were off-loaded (mechanical stress on the wounded area was avoided) as needed. There were no significant differences in adverse events in the two treatment arms.
# [4] = tested on: isolated pathogens; test: Resistance of pathogens isolated in the trial to study medication; conditions: at baseline or developed during the trial
# Description: as §2
# [5] = tested on: aerobic gram positive bacteria; conditions: including streptococci, MRSA and VRE; cited from earlier work
# [6] = tested on: diabetic foot infection; test: Example 3: parenteral treatment of a human with a diabetic foot infection; format: in vivo; conditions: 600 mg parenteral, two times daily for 7-28 days; person
# Procedure: A 70 kilo […] with a history of diabetes and infected foot ulcerations, also known as diabetic foot, is treated with a parenteral preparation of 600 mg (S)-N-[[3-[3-fluoro-4-[4-(morpholinyl)[…]]-2-oxo-5-oxazolidinyl]methyl]acetamide. The preparation is administered two times daily for 7-28 days. The patient is evaluated by clinical observations and with x-rays for osteomyelitis, including with a “probe-to bone” test and a bone biopsy if the patient has an open wound.
smiles,measurement,setting,value
"CC(=O)NC[C@H]1CN(c2ccc(N3CCOCC3)c(F)c2)C(=O)O1 [Linezolid, (S)-N-[[3-[3-fluoro-4-(4-morpholinyl)phenyl]-2-oxo-5-oxazolidinyl]methyl]acetamide]",microbiological success rates,[1]; microbiologically evaluable (ME) patients,72.2%
same,Microbiol. Efficacy (% Efficacy of the Evaluatable Population),"[1]; microbiologically evaluable population, 212 patients",72%
same,clinical cure rate versus comparator,[2],significantly higher clinical cure rate
same,Clinical Efficacy (% Efficacy of the Evaluatable Population),"[3]; clinically evaluable population, 317 patients",83%
same,clinical outcome versus amino/β-LI,[3]; infected ulcers and non-osteomyelitis cases,clinically superior
same,clinically cured patients,"[3]; infected ulcers, FIG. 2",81.4%
same,Clinical cure rates,"[3]; intent-to-treat (ITT) and clinically evaluable (CE) populations, FIG. 1",comparable
same,overall clinical and micro-biological outcomes versus amino/β-LI,"[3]; mostly given alone, PO, to outpatients",at least as effective overall as amino/β-LI
same,clinical cure rate,[3]; patients with osteomyelitis (n=60),61.0%
same,clinical cure rate,[3]; patients without osteomyelitis,86%
same,resistance of isolated pathogens to the study drug,[4],None of the isolated pathogens was resistant
same,antibacterial activity,[5],active against almost all aerobic gram positive bacteria
same,clinical observation of the ulcerated area after the course of treatment,[6],tissue destruction in the ulcerated area has visibly ceased and tissue repair has begun
